Laboratory results reported in EP2474552A1, “New saccharide mimics and their use as inhibitors of angiogenesis and metastasis formation” (Deutsches Krebsforschungszentrum, priority 2011, dated 2012).
Read-outs that look alike come from different tables or passages of the source.

Key:
[1] = tested on: WM-115; details: WM-115, 5 mM; cited from earlier work
[2] = tested on: WM-266-4; details: WM-266-4, 2.5 mM; cited from earlier work
[3] = tested on: murine B16F10 cells; details: cited from earlier work
[4] = tested on: human WM-115 cells; details: cited from earlier work
[5] = tested on: WM-266-4 cells; details: WM-266-4, at 5 mM; cited from earlier work
[6] = tested on: matrix-metalloproteinase-2 (MMP-2); details: cited from earlier work
[7] = tested on: WM-115 cells; assay: Wound healing assay (cell migration); type: cell-based, human; design: key to inhibit the cell migration of WM-115 cells: (-) means that the cell migration was not inhibited and that the wound healed; (+) means a slight inhibition, which slows the trend to heal; (++) means that the cell migration was inhibited, since only some cells were visible in the wound; (+++) means the absolute inhibition of cell migration; details: for concentration at which the migration of human melanoma cells is inhibited: summary of Table 1
Procedure: The compounds of the present invention were analyzed by means of a migration-assay, called "wound healing assay", that determines the inhibition-rate of the compounds on human melanoma cell line migration. Another migration assay, the so-called the Oris™ cell migration assay, is also applicable to examine the cell migration inhibitory effects of the compounds of the present invention. The used melanoma cells lines were WM-115 and WM-266-4, which are accepted in-vitro model cell systems. The human cell line WM-115 is derived from the primary tumor of a vertical growth phase (VGP) melanoma, whereas the cell line WM-266-4 is derived from the corresponding cutaneous metastasis. The "wound healing assay" is applicable to examine the cell migration inhibitory effects of the compounds of the present invention, which is described in further detail in the Examples. Furthermore, the "wound healing assay" is based on the fact that when wounded or scratched, cell monolayers respond to the disruption of cell-cell contacts and an increased concentration of growth factors at the wound margin by healing the wound through a combination of proliferation and migration, according to Yarrow, J.C., et al., BMC Biotechnol., 2004: 4, 21-29. In order to investigate the cell migration an intact cell monolayer is wounded with a pipette tip.
The wound healing assay has been carried out according to description as disclosed in Yarrow, J.C., et al., BMC Biotechnol., 2004: 4, 21-29. For carrying out the wound healing assay, 2 x 10^5 cells were grown in one well of a 12-well-plate under cell culture specific conditions for 24 h. After 24 h, a wound has been scratched in the confluently grown cell monolayer with a 100 µl pipette-tip. Detached cells were removed by washing with serum-free medium and new media with the respective compounds to be tested were supplemented with varying amounts. The cells were incubated under cell culture specific conditions and always the same section was photographed after 2, 4, 8 and 24 under the phase contrast microscope. The untreated cells healed the wound through a combination of proliferation and migration after 24 h.
The following table (Table 1) is a summary of the results obtained by carrying out the above described wound healing assay with varying amounts of compounds of the present invention to inhibit the cell migration of WM-115 cells, wherein (-) means that the cell migration was not inhibited and that the wound healed, (+) means a slight inhibition, which slows the trend to heal, (++) means that the cell migration was inhibited, since only some cells were visible in the wound, and (+++) means the absolute inhibition of cell migration. The abbreviation "n.d." means "not determined".

[8] = tested on: WM-115; details: WM-115, at 5 mM; cited from earlier work
[9] = tested on: WM-266-4 cells; assay: Adhesion assay with WM-266-4 cells on fibronectin; type: cell-based, human
Procedure: Microtiter plates with 96 wells were coated with 0.5 µg of fibronectin in 50 µl over night at 4° C and blocked with 200 µl adhesion buffer (1% BSA in PBS without Ca^2+/Mg^2+). WM-266-4 cells were pre-incubated with the test compounds at the respective concentrations in serum free medium for 60 min in a shaker (600 rpm) at 37° C. Afterwards, 4 x 10^4 cells in 100 µl were withdrawn and added into each well and incubated for 1 h at 37° C. Medium and non-adherent cells were aspirated and adherent cells were fixed in 4% formalin in PBS. The plates were washed with 0.01 M borate buffer (Stock-solution: 20 mM boric acid, 100 mM sodium tetraborate; pH 8.5; working solution: 0.01 M dilution in H2O) and 50 µl of 0.01 % methylene blue in borate buffer were added, wherein the cells were stained for 10 min at room temperature. The plates were extensively washed with water and air-dried. The air-dried plates were incubated for 45 min with 200 µl/well extraction buffer (a mixture of 0.1 N HCl and absolute EtOH (1:1, vol/vol)), wherein the adherent cells were quantified in an ELISA-reader, which read the extinction at 651 nm.
The human melanoma cells adhered to the fibronectin coated cell culture dishes. This adhesion is a prerequisite for growth of circulating cells such as occurs when these metastasize to sites distant from the tumor. The compounds described herein can inhibit such adhesion to the extracellular matrix protein fibronection or laminin to various degrees.

[10] = tested on: HBMEC-60 cells; assay: Adhesion assay with HBMEC cells (TNF-α stimulated) on laminin; type: cell-based, human
Procedure: Microtiter plates with 96 wells coated with the extracellular matrix component type I collagen, fibronenctin or laminin were used. HBMEC-60 cells which had been pre-incubated with the tumor necrosis factor (TNF-α, 40 ng/ml) for 24 hrs were incubated with the test compounds at the respective concentrations in serum free medium for endothelial cells (Promozell, Heidelberg, Germany) without growth factors for 30 min in 1.5 mL microfuge tubes (Eppendorf, Hamburg, Germany). Afterwards, 4 x 10^4 HBMEC-60 cells in 100 µl were withdrawn and added into each well. The plates were incubated at 37° C for 30 min and subsequently washed twice with PBS (with CaCl2 und MgSO4). Then, the adherent cells were fixed, washed and stained with methylene blue, the dye released and the extinction read as described above for the experiments with the melanoma cells.
Adhesion of endothelial cells to extracellular matrix proteins like laminin is a prerequisite for angiogenesis.

[11] = tested on: human melanoma cells
[12] = tested on: human melanoma cells; assay: Vitality test with Trypanblue; details: cells of the migration assay

SMILES | inhibit the cell migration of WM-115 cells ([7]; Concentration 0.1 mM) | inhibit the cell migration of WM-115 cells ([7]; Concentration 1 mM) | inhibit the cell migration of WM-115 cells ([7]; Concentration 2.5 mM) | inhibit the cell migration of WM-115 cells ([7]; Concentration 5mM) | concentration at which the migration of human melanoma cells is inhibited [7] | inhibition of the adhesion of WM-266-4 cells to fibronectin ([9]; concentration of 5 mM) [%] | vitality test with Trypanblue [11] | other results
O=S(=O)(O)OCc1cocc1CO[C@@H]1O[C@H](CO)[C@H](O)[C@H](O)[C@H]1O [GSF, 3-β-D-galactopyranosyl-oxymethyl-4-sulfato-methyl-furan] | - | - | + | +++ | greater than or equal to 2.5 mM | 26 |  | inhibition of cell migration into a wound [1]: no detectable migration; inhibition of cell migration into a wound [2]: no detectable migration; inhibition of adhesion to fibrinogen ([3]; at 20 mM or rather 10 mM): completely inhibits; inhibition of adhesion to fibronectin ([3]; at 40 mM): completely inhibits; inhibition of adhesion to fibrinogen ([4]; at 20 mM or rather 10 mM): completely inhibits; inhibition of adhesion to fibronectin ([4]; at 40 mM): completely inhibits; inhibition of migration [5]: inhibited; activation of the matrix-metalloproteinase-2 (MMP-2) [6]: decreased; inhibition of migration [8]: inhibited; inhibition of the adhesion of WM-266-4 cells to fibronectin ([9]; concentration of 0.1 mM): 8%
O=S(=O)(O)OCc1cocc1CO[C@@H]1O[C@H](COS(=O)(=O)O)[C@H](O)[C@H](O)[C@H]1O [GSSF, 3-(6-sulfato-β-D-galactopyranosyl-oxymethyl)-4-(sulfatomethyl)-furan] | ++ | ++ | +++ | +++ | 0.1 mM |  | cells were intact | inhibition of HBMEC-60 cell adhesion to laminin ([10]; 10 mM, compared with 10 mM GSF): better inhibitor; inhibition of endothelial cell adhesion to laminin ([10]; concentrations of 0.1, 0.5, 1 and 5 mM): significantly inhibited
OC[C@H]1O[C@@H](OCc2cocc2CF)[C@H](O)[C@@H](O)[C@H]1O [GFF, 3-(β-D-galactopyranosyl-oxymethyl)-4-(fluoro-methyl)-furan] |  | + | +++ | +++ |  |  |  | inhibition at 100 µM ([9]; Homo sapiens, WM 266-4, concentration of 0.1 mM): 34%; inhibition at 5000 µM ([9]; Homo sapiens, WM 266-4, concentration of 5 mM): 62%; vitality test with Trypanblue [12]: cells were intact
O=S(=O)(O)OCc1cocc1CO[C@@H]1O[C@H](CO)[C@@H](O)[C@H](O)[C@H]1O [GluSF, 3-(β-D-glucopyranosyl-oxymethyl)-4-(sulfatomethyl)-furan] | - | + | + | +++ | 1 mM | 79 | cells were intact | 
